Results on 1 compound are retold here after ChEMBL document CHEMBL5523733, “Small Molecule Targeting PPM1A Activates Autophagy for Mycobacterium tuberculosis Host-Directed Therapy” (J Med Chem, 2024).

The subject of this test is Mycobacterium tuberculosis. The test is described as follows: Anti-mycobacterial activity against Mycobacterium tuberculosis mc2 6206 expressing autoluminescent luciferase infected in human THP-1 cells assessed as reduction in bacterial burden pretreated for 24 hrs followed by bacterial infection measured for 5 days post-infection with re-current replacement of media with compound for every 2 days by luminescence based assay. The following applies: dose 0.5-5 µM, time 6.0 day. It is filed as functional, organism-based.

Turning to `CCOc1ccc2c(c1)c[n+](CCO)c1ccc(F)cc21.[Br-]`, the Activity result is “Dose-Dependent Effect”.
